From patent publication US10385022B2, “3-amino-pyridines as GPBAR1 agonists” (HOFFMANN-LA ROCHE INC., priority 2011, dated 2019)

Target: human GPBAR1 receptor (Homo sapiens (Human), UniProt Q8TDU6)
Assay: functional cAMP assay in CHO-dhfr(minus) cells expressing human GPBAR1 receptors
Type: cell-based
Settings: CHO-dhfr(minus) cells expressing human GPBAR1, 30 min at 30° C.
Outline: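 Functional cAMP responses in a human GPBAR1-transfected CHO-dhfr- clone, picked using lithocholic acid as agonist, gave the EC50 values. Parallel testing in untransfected CHO cells served as a specificity control.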

human GPBAR1 receptor, sequence (Q8TDU6 whole entry): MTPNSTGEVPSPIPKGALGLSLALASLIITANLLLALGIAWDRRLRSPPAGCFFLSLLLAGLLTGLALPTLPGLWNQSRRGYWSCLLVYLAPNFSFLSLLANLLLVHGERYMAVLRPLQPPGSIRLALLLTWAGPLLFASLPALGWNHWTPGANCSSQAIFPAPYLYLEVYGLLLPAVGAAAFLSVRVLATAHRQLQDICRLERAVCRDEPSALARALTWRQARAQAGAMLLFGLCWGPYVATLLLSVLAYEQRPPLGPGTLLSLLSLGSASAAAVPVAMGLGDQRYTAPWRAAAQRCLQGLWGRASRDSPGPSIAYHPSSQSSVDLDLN

| SMILES | EC50 |
| --- | --- |
| Cc1ccccc1-c1ccncc1N(CCC#N)C(=O)c1cc(C(F)(F)F)cc(C(F)(F)F)c1 [Example 165, N-(2-Cyano-ethyl)-N-(4-o-tolyl-pyridin-3-yl)-3,5-bis-trifluoromethyl-benzamide] | 153 nM |
| Cc1cnccc1-c1ccncc1N(C)C(=O)c1cc(C(F)(F)F)cc(C(F)(F)F)c1 [Example 34, N-Methyl-N-(3′-methyl-[4,4′]bipyridinyl-3-yl)-3,5-bis-trifluoromethyl-benzamide] | 502 nM |
| COC(=O)COc1cc(F)ccc1-c1ccncc1N(C)C(=O)c1cc(C(F)(F)F)cc(C(F)(F)F)c1 [Example 49, (2-{3-[(3,5-Bis-trifluoromethyl-benzoyl)-methyl-amino]-pyridin-4-yl}-5-fluoro-phenoxy)-acetic acid methyl ester] | 629 nM |
| COc1cc(F)ccc1-c1ccncc1N(C)C(=O)c1cc(C(F)(F)F)cc(S(=O)(=O)N2CCOCC2)c1 [Example 256, N-[4-(4-Fluoro-2-methoxy-phenyl)-pyridin-3-yl]-N-methyl-3-(morpholine-4-sulfonyl)-5-trifluoromethyl-benzamide] | 20 nM |
| COc1cc(F)ccc1-c1ccncc1N(C)C(=O)c1cc(C(F)(F)F)cc(S(C)(=O)=O)c1 [Example 138, N-[4-(4-Fluoro-2-methoxy-phenyl)-pyridin-3-yl]-3-methanesulfonyl-N-methyl-5-trifluoromethyl-benzamide] | 42 nM |
| Cc1ccccc1-c1ccncc1N(CCS(C)(=O)=O)C(=O)c1cc(C(F)(F)F)nc(C(F)(F)F)c1 [Example 163, N-(2-Methanesulfonyl-ethyl)-N-(4-o-tolyl-pyridin-3-yl)-2,6-bis-trifluoromethyl-isonicotinamide] | 99 nM |
| COc1cc(F)ccc1-c1ccncc1N(C)C(=O)c1cc(Cl)cc(C2CC2)c1 [Example 238, 3-Chloro-5-cyclopropyl-N-[4-(4-fluoro-2-methoxy-phenyl)-pyridin-3-yl]-N-methyl-benzamide] | 23 nM |
| CN(C(=O)c1cc(C(F)(F)F)cc(C(F)(F)F)c1)c1cnccc1-c1ccc(F)cc1OCC#N [Example 51, N-[4-(2-Cyanomethoxy-4-fluoro-phenyl)-pyridin-3-yl]-N-methyl-3,5-bis-trifluoromethyl-benzamide] | 60 nM |
| COc1cc(F)c(F)cc1-c1ccncc1N(CC(F)F)C(=O)c1cc(C(F)(F)F)nc(C(F)(F)F)c1 [Example 154, N-(2,2-Difluoro-ethyl)-N-[4-(4,5-difluoro-2-methoxy-phenyl)-pyridin-3-yl]-2,6-bis-trifluoromethyl-isonicotinamide] | 39 nM |
| COCCN(C)c1cc(-c2ccccc2C)c(N(C)C(=O)c2cc(C(F)(F)F)cc(C(F)(F)F)c2)cn1 [Example 18, N-{6-[(2-Methoxy-ethyl)-methyl-amino]-4-o-tolyl-pyridin-3-yl}-N-methyl-3,5-bis-trifluoro methyl-benzamide] | 850 nM |
| COc1ncc(F)cc1-c1ccncc1N(C)C(=O)c1cc(C(F)(F)F)cc(C(F)(F)F)c1 [Example 44, N-(5-Fluoro-2-methoxy-[3,4′]bipyridinyl-3′-yl)-N-methyl-3,5-bis-trifluoromethyl-benzamide] | 30 nM |
| COc1c(F)cccc1-c1ccncc1N(C)C(=O)c1cc(C(F)(F)F)cc(C(F)(F)F)c1 [Example 41, N-[4-(3-Fluoro-2-methoxy-phenyl)-pyridin-3-yl]-N-methyl-3,5-bis-trifluoromethyl-benzamide] | 90 nM |
| COc1cnccc1-c1ccncc1N(C)C(=O)c1cc(C(F)(F)F)cc(C(F)(F)F)c1 [Example 69, N-(3′-Methoxy-[4,4′]bipyridinyl-3-yl)-N-methyl-3,5-bis-trifluoromethyl-benzamide] | 377 nM |
| CS(=O)(=O)c1cc(C(=O)N(CC(N)=O)c2cnccc2-c2ccccc2F)cc(C(F)(F)F)c1 [Example 219, N-Carbamoylmethyl-N-[4-(2-fluoro-phenyl)-pyridin-3-yl]-3-methanesulfonyl-5-trifluoromethyl-benzamide] | 3030 nM |
| COCCS(=O)(=O)c1cc(C(=O)N(C)c2cnccc2-c2ccc(F)cc2OC)cc(C(F)(F)F)c1 [Example 217, N-[4-(4-Fluoro-2-methoxy-phenyl)-pyridin-3-yl]-3-(2-methoxy-ethanesulfonyl)-N-methyl-5-trifluoromethyl-benzamide] | 31 nM |
| CN(C(=O)c1cc(C(F)(F)F)cc(C(F)(F)F)c1)c1cnccc1-c1ccncc1F [Example 70, N-(3′-Fluoro-[4,4′]bipyridinyl-3-yl)-N-methyl-3,5-bis-trifluoromethyl-benzamide] | 485 nM |
| COc1nccc(-c2ccncc2N(C)C(=O)c2cc(C(F)(F)F)cc(C(F)(F)F)c2)c1Cl [Example 50, N-(3′-Chloro-2′-methoxy-[4,4′]bipyridinyl-3-yl)-N-methyl-3,5-bis-trifluoromethyl-benzamide] | 678 nM |
| COc1cc(F)ccc1-c1ccncc1N(C)C(=O)c1cc(C(F)(F)F)cc(S(=O)(=O)CCNS(N)(=O)=O)c1 [Example 269, N-[4-(4-fluoro-2-methoxyphenyl)pyridin-3-yl]-N-methyl-3-{[2-(sulfamoylamino)ethyl]-sulfonyl}-5-(trifluoromethyl)benzamide] | 94 nM |
| COc1cc(F)ccc1-c1ccncc1N(C)C(=O)c1cc(C2COC2)cc(C(F)(F)F)c1 [Example 235, N-[4-(4-Fluoro-2-methoxy-phenyl)-pyridin-3-yl]-N-methyl-3-oxetan-3-yl-5-trifluoromethyl-benzamide] | 85 nM |
| COc1cccc(-c2ccncc2N(C)C(=O)c2cc(C(F)(F)F)cc(C(F)(F)F)c2)c1OC [Example 167, N-[4-(2,3-Dimethoxy-phenyl)-pyridin-3-yl]-N-methyl-3,5-bis-trifluoromethyl-benzamide] | 2720 nM |
| COc1cc(F)ccc1-c1ccncc1N(CC1CCCO1)C(=O)c1cc(C(F)(F)F)cc(S(C)(=O)=O)c1 (single isomer, unassigned; (+)) [Example 232, (+)-N-[4-(4-Fluoro-2-methoxy-phenyl)-pyridin-3-yl]-3-methanesulfonyl-N-[1-(tetrahydro-furan-2-yl)methyl]-5-trifluoromethyl-benzamide] | 335 nM |
| CCC(=O)CN(C(=O)c1cc(C(F)(F)F)cc(S(C)(=O)=O)c1)c1cnccc1-c1ccc(F)cc1OC [Example 204, N-[4-(4-Fluoro-2-methoxy-phenyl)-pyridin-3-yl]-3-methanesulfonyl-N-(2-oxo-butyl)-5-trifluoromethyl-benzamide] | 619 nM |
| COc1cc(F)c(F)cc1-c1ccncc1N(CC(N)=O)C(=O)c1cc(C(F)(F)F)cc(C(F)(F)F)c1 [Example 189, N-Carbamoylmethyl-N-[4-(4,5-difluoro-2-methoxy-phenyl)-pyridin-3-yl]-3,5-bis-trifluoromethyl-benzamide] | 47 nM |
| Cc1ccccc1-c1ccncc1N(C)C(=O)c1cc(F)cc(Cl)c1 [Example 103, 3-Chloro-5-fluoro-N-methyl-N-(4-o-tolyl-pyridin-3-yl)-benzamide] | 329 nM |
| Cc1ccccc1-c1ccncc1N(C)C(=O)c1cc(Cl)cc(Cl)n1 [Example 123, 4,6-Dichloro-pyridine-2-carboxylic acid methyl-(4-o-tolyl-pyridin-3-yl)-amide] | 473 nM |
